Test [1] concerns T1, Tyrosine-protein phosphatase non-receptor type 1 (Homo sapiens), P18031 [P87C,A122C].
T1 sequence (whole entry): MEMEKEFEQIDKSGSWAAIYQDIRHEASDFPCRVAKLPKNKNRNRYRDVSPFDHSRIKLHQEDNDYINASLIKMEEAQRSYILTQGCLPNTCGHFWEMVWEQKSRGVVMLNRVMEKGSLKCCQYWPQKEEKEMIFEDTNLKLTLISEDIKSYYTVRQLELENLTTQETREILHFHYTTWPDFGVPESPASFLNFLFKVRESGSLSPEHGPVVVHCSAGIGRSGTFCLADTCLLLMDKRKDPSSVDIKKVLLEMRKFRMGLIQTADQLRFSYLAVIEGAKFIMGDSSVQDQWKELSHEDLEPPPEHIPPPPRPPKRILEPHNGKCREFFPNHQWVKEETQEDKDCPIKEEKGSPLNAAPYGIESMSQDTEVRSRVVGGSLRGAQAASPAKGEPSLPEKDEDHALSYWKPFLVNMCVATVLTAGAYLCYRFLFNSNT
Description: Inhibition of allosterically sensitized His6-tagged human PTP1B catalytic domain P87C/A122C mutant at 2000 nM using pNPP as substrate incubated for 10 to 40 mins by quenched phosphatase activity assay. The settings on record: TDE = time-dependent effect.

Test [2] has the same test system. Description: Inhibition of allosterically sensitized His6-tagged human PTP1B catalytic domain P87C/A122C mutant overexpressed in Escherichia coli BL21(DE3) cells using pNPP as substrate incubated for 90 mins by quenched phosphatase activity assay.
For test [3], the target named is T2, Tyrosine-protein phosphatase non-receptor type 1 (Homo sapiens) (UniProt P18031).
T2 sequence (whole entry): T1 sequence (whole entry) with C87P, C122A
Kind of test: Binding affinity to His6-tagged human wild-type PTP1B catalytic domain overexpressed in Escherichia coli crude cell lysate at 6.66 uM incubated for 90 mins by SDS-PAGE and LC-MS/MS method.

In test [4] the target is T3, Tyrosine-protein phosphatase non-receptor type 7 (Homo sapiens) (UniProt P35236).
T3 sequence (whole entry): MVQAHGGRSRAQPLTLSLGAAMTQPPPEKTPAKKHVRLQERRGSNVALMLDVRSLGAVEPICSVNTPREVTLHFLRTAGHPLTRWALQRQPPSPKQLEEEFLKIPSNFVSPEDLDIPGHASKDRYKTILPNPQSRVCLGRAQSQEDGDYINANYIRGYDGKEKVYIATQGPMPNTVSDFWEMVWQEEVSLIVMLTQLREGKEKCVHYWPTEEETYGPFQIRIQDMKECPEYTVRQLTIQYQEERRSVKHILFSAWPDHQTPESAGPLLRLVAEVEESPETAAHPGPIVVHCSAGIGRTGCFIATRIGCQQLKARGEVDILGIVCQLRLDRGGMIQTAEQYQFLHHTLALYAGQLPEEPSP
Kind of test: Inhibition of His6-tagged human wild-type HePTP catalytic domain overexpressed in Escherichia coli crude cell lysate at 2000 nM using pNPP as substrate incubated for 90 mins by quenched phosphatase activity assay.

Test [5] relates to T4, Tyrosine-protein phosphatase non-receptor type 7 (Homo sapiens), P35236 [P171C,V205C].
T4 sequence (whole entry): T3 sequence (whole entry) with P171C, V205C
Description: Binding affinity to allosterically sensitized mutant form of His6-tagged human HePTP catalytic domain overexpressed in Escherichia coli crude cell lysate at 25 to 100 uM using pNPP as substrate after 90 mins by SDS-PAGE and LC-MS/MS method.

Test [6] has the same test system. Description: Binding affinity to allosterically sensitized mutant form of His6-tagged human HePTP catalytic domain overexpressed in Escherichia coli crude cell lysate at 100 uM after 90 mins by SDS-PAGE analysis.
The target of test [7] is T3, Tyrosine-protein phosphatase non-receptor type 7 (Homo sapiens). Kind of test: Inhibition of His6-tagged human wild-type HePTP catalytic domain overexpressed in Escherichia coli BL21(DE3) cells at 100 uM using pNPP as substrate incubated for 90 mins by quenched phosphatase activity assay.
In test [8] the target is T5, Tyrosine-protein phosphatase non-receptor type 11 (Homo sapiens) (UniProt Q06124).
T5 sequence (whole entry): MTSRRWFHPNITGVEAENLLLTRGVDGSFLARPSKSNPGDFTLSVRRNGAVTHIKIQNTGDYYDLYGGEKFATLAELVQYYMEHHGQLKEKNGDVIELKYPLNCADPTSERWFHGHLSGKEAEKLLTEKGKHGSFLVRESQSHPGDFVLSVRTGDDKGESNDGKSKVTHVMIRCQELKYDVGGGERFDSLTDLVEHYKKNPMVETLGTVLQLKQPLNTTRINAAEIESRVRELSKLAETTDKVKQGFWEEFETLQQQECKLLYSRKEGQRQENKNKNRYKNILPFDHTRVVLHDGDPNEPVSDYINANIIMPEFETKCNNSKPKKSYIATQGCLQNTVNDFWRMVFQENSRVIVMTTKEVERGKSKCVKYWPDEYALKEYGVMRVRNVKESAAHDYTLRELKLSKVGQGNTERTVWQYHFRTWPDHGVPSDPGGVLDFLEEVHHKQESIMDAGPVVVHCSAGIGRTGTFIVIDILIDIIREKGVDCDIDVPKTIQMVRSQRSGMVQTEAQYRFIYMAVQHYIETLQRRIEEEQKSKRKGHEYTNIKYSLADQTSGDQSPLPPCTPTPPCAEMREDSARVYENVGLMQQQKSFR
Description: Inhibition of allosterically sensitized mutant form of His6-tagged human SHP2 catalytic domain using pNPP as substrate after 90 mins by quenched phosphatase activity assay.

In test [9] the target is T3, Tyrosine-protein phosphatase non-receptor type 7 (Homo sapiens). Description: Inhibition of His6-tagged wild type human HePTP catalytic domain overexpressed in Escherichia coli BL21(DE3) cells at 25 uM using pNPP as substrate incubated for 90 mins by quenched phosphatase activity assay.

Substitutions are numbered along the chain they refer to. The source made the active and inactive calls. No cut-off for these calls is given here.

In the case of `CC1(C)C(/C=C/C=C2/N(CCCCS(=O)(=O)O)c3ccc([As]4SCCS4)cc3C2(C)C)=[N+](CCCCS(=O)(=O)O)c2ccc([As]3SCCS3)cc21`, the figures for the inhibition entry in test [1] and in test [2] were “Tde” and “Dose-dependent effect”, respectively. Moreover, the result in test [3] was inactive.
For the molecule `O=C(O)c1ccccc1-c1c2ccc(=O)c([As]3SCCS3)c-2oc2c([As]3SCCS3)c(O)ccc12`, the inhibition entry in [4], in test [7] and in test [9] was “inactive” throughout. For the same molecule, the outcome in test [5] was Active. In [6], the outcome was inactive. Also, the inhibition entry in test [8] was “Dose-dependent effect”.

The values are drawn from ChEMBL document CHEMBL4118135, “Optimized allosteric inhibition of engineered protein tyrosine phosphatases with an expanded palette of biarsenical small molecules” (Bioorg Med Chem, 2018).
